Structures are written as SMILES. “And” between values parts separate entries of the source, which are not always exact repeats. Equal entries are not always repeated.

The target in the experiment is T1, human type 5 17β-hydroxysteroid dehydrogenase (Homo sapiens, UniProt P42330).
T1 construct: screen again a human placental λgt11 cDNA to get the full length cDNA clone; expressed in transfected cells; host or cells: human embryonal kidney 293 cells (pCMV / pCMV-neo vector)
T1 sequence (P42330 1-323): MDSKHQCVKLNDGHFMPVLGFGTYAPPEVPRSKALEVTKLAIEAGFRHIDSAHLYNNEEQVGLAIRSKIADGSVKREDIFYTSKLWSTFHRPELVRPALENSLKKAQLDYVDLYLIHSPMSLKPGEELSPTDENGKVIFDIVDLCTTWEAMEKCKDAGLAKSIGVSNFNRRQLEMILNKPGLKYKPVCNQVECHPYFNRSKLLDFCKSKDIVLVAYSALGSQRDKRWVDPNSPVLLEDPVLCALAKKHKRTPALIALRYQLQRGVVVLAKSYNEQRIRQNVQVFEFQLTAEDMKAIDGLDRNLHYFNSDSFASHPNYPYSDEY
Briefly: Inhibition of human type 5 17β-HSD activity in transfected 293 cells. In kind it is cell-based. As to conditions: Table 4′; read-out: Inhibition Type V 17β-HSD IC50. An outline of the steps:
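Human type 5 17β-HSD cDNA in a CMV-promoter vector, transfected by calcium phosphate (1 to 10 μg plasmid per 10^6 cells) into 293 cells grown in DMEM with 10% FBS at 37 °C.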
Regarding `CC1(C)CCC2(CCC3C4CCc5c(cc(Cl)c(OS(C)(=O)=O)c5Cl)C4CCC32C)OC1=O` (stereo not drawn) [EM-1392-CS], the IC50 is 19 nM.
To `COc1ccc2c(c1)C(=O)CC1C3CCC4(CCC(C)(C)C(=O)O4)C3(C)CCC21O` (stereo not drawn) [EM-1386] belongs 25 nM; to `CC1CCC2(CCC3C4CCc5ccccc5C4CCC32C)OC1=O` (stereo not drawn) [EM-1025], 6.1 nM and 4.3 nM.
For the molecule `CC1(C)CCC2(CCC3C4CCc5cc(O)c(C#N)cc5C4CCC32C)OC1=O` (stereo not drawn) [EM-01645], the IC50 was 4.5 ± 0.3 nM.
`CC12CCC3c4ccc(O)cc4CCC3C1CCC21CC=CC(=O)O1` [PB-132-140, 3-hydroxy-1,3,5(10)-estratrien-17(R)-spiro-2′-(4′,5′-dihydro-6′-oxo)pyran]: the IC50 was found to be 49 ± 5 nM.
Take `CC1CCC2(CCC3C4CCc5cc(O)c([N+](=O)[O-])cc5C4CCC32C)OC1=O` [EM-1131, 2-Nitro-1,3,5(10)-estratrien-3-ol-17(R)-spiro-2′-(5′-methyl-6′-oxo)tetrahydropyran]: the half-inhibitory concentration (IC50) amounted to 3 nM.

By IC50 is commonly meant the midpoint of a concentration-inhibition curve.

(Values after patent US6541463B1, “Inhibitors of type 5 and type 3 17β-hydroxysteroid dehydrogenase and methods for their use” (Endorecherche, Inc., priority 1998, dated 2003).)
